Consider 10 compounds from US20050272647A1, “Arthrodial cartilage extracellular matrix degradation inhibitor” (priority 2002, published 2005).

Molecules are shown by their SMILES. Structures can show the parent of a compound that is named as a salt.

The test system of assay [1] is rabbit knee articular cartilage primary culture cells. The assay can be described thus: PG destruction inhibitory activity in rabbit cartilage primary culture cell (stimulation with retinoic acid). The following applies: Oryctolagus cuniculus, 48 h, read-out: PG degradation inhibition (%).
Method: After a rabbit (Japanese white race, male, 1.0 to 1.5 kg) was killed under excessive anesthesia, the knee joint was taken out and the cartilage layer on the articular surface was abraded and cut finely. […] After 3 days, the medium was replaced by 200 μl of DMEM/10% FBS medium containing 50 μg/ml ascorbic acid (hereinafter referred to as ascorbic acid medium) and two days of culture was further repeated twice. Thereafter, the rabbit knee articular cartilage primary culture cells were cultured in 200 μl of the ascorbic acid medium containing Na2 35SO4 of a final concentration of 10 μCi/ml for 3 days to achieve labeling, followed by washing with 200 μl of the ascorbic acid medium three times and 1 day of culture in 200 μl of the ascorbic medium. The culture was stimulated with all-trans retinoic acid (manufactured by Sigma) of a final concentration of 1 μM. A culture supernatant after 48 hours was recovered in an each amount of 20 μl and radioactivity was measured using Topcount (manufactured by Packard). The test compound was added simultaneously with the start of the stimulation and a PG degradation inhibitory activity was calculated as percentage where a group to which retinoic acid was not added was defined as 100% and a group to which retinoic acid was added was defined as 0%.
The test system of a further assay is HDAC. The following applies: literature value, cited from earlier work; for HDAC inhibitory activity (order of magnitude): Nat. Rev. Drug Discov. 2002; for IC50: read-out: HDAC inhibitory activity (IC50 value).
For assay [2], the system named is rabbit cartilage primary culture cells. The assay can be described thus: PG destruction inhibitory activity in rabbit cartilage primary culture cell (stimulation with IL-1). The note with it: Oryctolagus cuniculus, 48 h, read-out: PG degradation inhibition (%).
Method: After a rabbit (Japanese white race, male, 1.0 to 1.5 kg) was killed under excessive anesthesia, the knee joint was taken out and the cartilage layer on the articular surface was abraded and cut finely. […] After 3 days, the medium was replaced by 200 μl of DMEM/10% FBS medium containing 50 μg/ml ascorbic acid (hereinafter referred to as ascorbic acid medium) and two days of culture was further repeated twice. Thereafter, the rabbit knee articular cartilage primary culture cells were cultured in 200 μl of the ascorbic acid medium containing Na2 35SO4 of a final concentration of 10 μCi/ml for 3 days to achieve labeling, followed by washing with 200 μl of the ascorbic acid medium three times and 1 day of culture in 200 μl of the ascorbic medium.
They were stimulated with human IL-1β (manufactured by R&D System) of a final concentration of 10 ng/ml. A culture supernatant after 48 hours was recovered in an each amount of 20 μl and radioactivity was measured using Topcount (manufactured by Packard). The test compound was added simultaneously with the start of the stimulation and a PG degradation inhibitory activity was calculated as percentage where a group to which IL-1 was not added was defined as 100% and a group to which IL-1 was added was defined as 0%.
Assay [3] deals with histone deacetylase fraction. Kind of assay: HDAC inhibitory activity, [3H]acetylhistone and histone deacetylase fraction (method of Yoshida et al.). The class given is biochemical. The following applies: at 30 nM.
Method: Specifically, the measurement can be conducted, using [^3H]acetylhistone and a histone deacetylase fraction prepared by the method described in the above reference, adding a test compound to a reaction solution containing [^3H]acetylhistone and DTT, mixing the histone deacetylase fraction after 1 hour of pre-incubation at room temperature, reacting them for 2 hours at room temperature, adding 1M hydrochloric acid and ethyl acetate thereto, and then measuring radioactivity in the ethyl acetate layer separated by centrifugation by a scintillation counter.

Consider `CCC(=O)CCCCC[C@@H]1NC(=O)[C@H]2CCCCN2C(=O)[C@H]([C@@H](C)CC)NC(=O)[C@H](Cc2cn(OC)c3ccccc23)NC1=O` [Apicidin], for which, in assay [1], the inhibition at 0.03 µM is 25% and the inhibition at 0.3 µM stood at 92%.
Turning to `CCCC(=O)O` [butyric acid], in the assay with HDAC, the “HDAC inhibitory activity (order of magnitude)” value is given as “mM order”.
Consider `CCCC(CCC)C(=O)O` [Valproic acid (Na salt), Valproic acid], for which, in assay [1], the inhibition at 300 µM stood at 49%, the inhibition at 1000 µM amounted to 46% and the inhibition at 3000 µM was found to be 79%.
For `CCCC(=O)O` [Butyric acid (Na salt), Butyric acid], in assay [1], the inhibition at 300 µM came out at 27% and the inhibition at 3000 µM was determined as 93%. In addition, in the assay with HDAC, the half-inhibitory concentration (IC50) was 280000 nM. Also, the inhibition at 5000 µM in assay [2] stood at 78%.
Turning to `C/C=C1\NC(=O)[C@H]2CSSCC/C=C/[C@H](CC(=O)N[C@H](C(C)C)C(=O)N2)OC(=O)[C@H](C(C)C)NC1=O` [FK228], in assay [1], the inhibition at 0.01 µM was 39% and the inhibition at 0.1 µM is 97%. Moreover, the inhibition at 0.03 µM in assay [2] is 97%.
Regarding `Nc1ccccc1NC(=O)c1ccc(CNC(=O)OCc2cccnc2)cc1` [MS-27-275], the IC50 in the assay on HDAC is 2000 nM.
In the case of `CC(/C=C/C(=O)NO)=C\[C@@H](C)C(=O)c1ccc(N(C)C)cc1` [Trichostatin A], in assay [1], the inhibition at 0.1 µM amounted to 40% and the inhibition at 1 µM was found to be 58%. In the assay on HDAC, the concentration for half-maximal inhibition (IC50) was 2.1 nM.
`O=C(/C=C/c1ccc(CN(CCO)CCc2c[nH]c3ccccc23)cc1)NO` [NVP-LAQ824]: in assay [1], the inhibition at 0.03 µM is 26% and the inhibition at 0.3 µM turned out to be 90%. The half-maximal inhibitory concentration (IC50) with HDAC was 30 nM.
Take `CCCC(CCC)C(=O)O` [Valproic acid]: the “HDAC inhibitory activity (order of magnitude)” value in the assay with HDAC was “mM order”.
On to `CC1NC(=O)CC2/C=C/CCSSCC(NC1=O)C(=O)NC(C(C)C)C(O)CC(=O)O2` (centres unmarked) [Compound A], for which, in assay [3], the HDAC inhibition entry is reported as “about 85%”. Besides, in assay [1], the inhibition at 0.001 µM amounted to 20%, the inhibition at 0.01 µM worked out at 51%, the inhibition at 0.1 µM was 93% and the inhibition at 1 µM was determined as 98%. For the same compound, in assay [2], the inhibition at 0.0003 µM was determined as 6%, the inhibition at 0.003 µM was 39% and the inhibition at 0.03 µM stood at 61%.
